Results as given in patent US20080039515A1, “Arylpyrazoles And Methods Of Using Same For Control Of Insect Pests That Bore Into Trees” (The Texas A&M University System, priority 2004, published 2008).
Where two headings read alike, the source gives them in different places.

Key:
[1] = system: Ips engraver beetles; assay: Trial 2 single-tree protection study: Ips attack, tree mortality and gallery construction on standing loblolly pine; type: in vivo; parameters: Length of Egg Galleries Total: unit not given here; conditions: for trees with early signs of fading crowns (number of 6 trees): 24 days after initial pheromone deployment; for Length of Egg Galleries Total / Length of Egg Galleries With Brood / Length of Egg Galleries With Brood % of Total / Length of Egg Galleries Without Brood / Length of Egg Galleries Without Brood % of Total / Number of Egg Galleries Total / Number of Egg Galleries With Brood % of Total / Number of Egg Galleries With Brood No. / Number of Egg Galleries Without Brood % of Total / Number of Egg Galleries Without Brood No. / Nuptial Chambers With Egg Galleries % of Total / Nuptial Chambers With Egg Galleries No. / Nuptial Chambers Without Egg Galleries % of Total / Nuptial Chambers Without Egg Galleries No. / Total Nuptial Chambers: logs cut after tree mortality or end of trial; for Mean # of Ips caught/trap / Number of Attacks/0.3 m bole section at 3 m after 24 days: Ips: standing loblolly pine; for Number of Attacks/0.3 m bole section at 3 m after 24 days: Ips: 24 days after pheromone deployment
Method: (§1) Study Sites: Two 20-year-old, recently thinned loblolly pine plantations were selected in Texas. Trees in one plantation were injected for use in a bolt study (Trial 1). Trees in ½ acre section of the second plantation were injected as part of a single-tree protection study (Trial 2). A staging area also was set up in the second plantation where bolts from the first plantation were exposed to bark beetles and wood borers.
Population Monitoring: A clear panel of acetate (10 cm wide by 25 cm long) was attached to the center of each bolt after deployment of bolts or 2 m high on standing trees after deployment of pheromone baits to monitor arrival of bark beetles. The top surface of each panel was coated entirely with Stikem Special® trapping compound (Michel and Pelton, Emeryville, Calif.). The traps were left in place for two weeks.
Trial 2: Loblolly pine, 15-20 cm (=6-9 inch) DBH, also were selected in March of the study year in a recently thinned 20-year-old pine stand in east Texas. Each treatment (the same as those used in Trial 1) was injected into four cardinal points about 0.3 m above the ground on each of 6 trees in April (16th-23rd) using the Arborjet Tree IV™ system.
After 5 weeks post-injection (May 28), frills were cut with a hatchet into the sapwood between the injection points near the base of the tree. A cellulose. sponge was inserted into each cut and loaded with I0 ml of a 4:1 mix of sodium N-methyldithiocarbamate (MS) (Woodfume®; Osmose, Inc., Buffalo, N.Y.) plus dimethyl sulfoxide (DMSO) (Aldrich Chemical) (Roton 1987, Strom et al. 2004). […] The intent was to stress the tree and make it susceptible to attack by bark beetles without killing it. Pheromone packets containing racemic ipsdienol+lanerione, ipsenol or cis-verbenol were attached (June 7) atop 3 m stakes evenly spaced in between and around the study trees to encourage attack by the three Ips engraver species. […] The baits were changed every 4 weeks.
Trial 2. […] All visible Ips attacks and cerambycid egg niches were counted within the marked area. The number of trees with fading crowns also was recorded. Thereafter, the trees were evaluated weekly for crown fading. When mortality did occur, the trees were felled and two bolts taken and evaluated for attack success and gallery length as described in Trial 1. […] Treatment efficacy was determined by comparing tree survival, beetle attacks and egg gallery length on treated and untreated bolts. As before, data were transformed and analyzed by GLM and the Fisher's Protected LSD test using the Statview statistical program.

[2] = system: cerambycid larvae; type: in vivo, cerambycids; conditions: for reduction of cerambycid larval feeding damage: May
Method: as §1
After 1 (May 24), 3 (July 19) and 5 (September) months post-injection, 5 trees of each treatment were felled and two 1.5 m long bolts were removed from the 3 m and 8 m heights of the bole. Because southern pine beetle (SPB) populations were extremely low in east Texas during the study year, Ips engravers were used as alternative bark beetles for this study. The bolts were transported to a 20-year-old loblolly plantation that was recently thinned and contained fresh slash material. Each bolt was placed about 1 m apart on discarded, dry pine bolts to maximize surface area available for colonization as well as to discourage predation by ground and litter-inhabiting organisms. To facilitate timely bark beetle colonization, packets of bark beetle pheromones (racemic ipsdienol +lanerione combination, ipsenol or cis-verbenol; Phero Tech, Inc., Delta, BC, Canada) were attached separately to three 1 m stakes evenly spaced in the study area. Racemic ipsdienol and cis-verbenol were used with the second series of bolts deployed in July. The packets were removed after 2 weeks when signs of attacks (boring dust) were observed on most test bolts, signaling that naturally-produced pheromones were present.
Treatment Evaluation: Trial 1. The first and second series of bolts were retrieved 2.5 and 3 weeks, respectively, after deployment, after observing many cerambycid attacks on most of the bolts. In the laboratory, two 10×50 cm strips (total=1000 cm^2) of bark were removed from each bolt. Several measurements were made relating to construction of nuptial chambers and egg galleries and development of brood: • 1. Number of unsuccessful attacks—penetration to phloem, but no egg galleries. • 2. Number of successful attacks—construction of nuptial chamber and at least one egg gallery extending from it. • 3. Number and lengths of egg galleries with brood galleries radiating from them. • 4. Number and lengths of egg galleries without brood galleries. • 5. Cerambycid activity, estimated by overlaying a 100 cm^2 grid over a portion of each bark strip and counting the number of squares overlapping area where cerambycids had fed.
Treatment efficacy was determined by comparing Ips beetle attacks and egg gallery length and cerambycid feeding on treated and untreated bolts. The data were transformed by log10(x+1) to satisfy criteria for normality and homoscedasticity (Zar 1984) and analyzed by GLM and the Fishers Protected LSD test using the Statview statistical program.

[3] = After 24 days from pheromone bait deployment

N#Cc1nn(-c2c(Cl)cc(C(F)(F)F)cc2Cl)c(N)c1[S+]([O-])C(F)(F)F (centres unmarked) [Fip, 5-amino-3-cyano-1-(2,6-dichloro-4-trifluoromethylphenyl)-4-trifluoromethylsulfinylpyrazole]
trees with early signs of fading crowns (number of 6 trees) [1]: None
Pct of Trees w/Fading Crowns [1, 3]: 0.0 Pct
Pct of Trees w/Fading Crowns ([1]; After 32 days): 0.0 Pct
Pct of Trees w/Fading Crowns ([1]; After 39 days): 0.0 Pct
Pct of Trees w/Fading Crowns ([1]; After 46 days): 0.0 Pct
Pct of Trees w/Fading Crowns ([1]; After 52 days): 0.0 Pct
Pct of Trees w/Fading Crowns ([1]; After 59 days): 0.0 Pct
Pct of Trees w/Fading Crowns ([1]; After 66 days): 0.0 Pct
Length of Egg Galleries Total ([1]; bolt height 3 m): 6.0
Length of Egg Galleries With Brood ([1]; bolt height 3 m): 2.5 cm
Length of Egg Galleries With Brood % of Total ([1]; bolt height 3 m): 41.7%
Length of Egg Galleries Without Brood ([1]; bolt height 3 m): 3.5 cm
Length of Egg Galleries Without Brood % of Total ([1]; bolt height 3 m): 58.3%
Number of Egg Galleries Total ([1]; bolt height 3 m): 1.2
Number of Egg Galleries With Brood % of Total ([1]; bolt height 3 m): 14.3%
Number of Egg Galleries With Brood No. ([1]; bolt height 3 m): 0.2
Number of Egg Galleries Without Brood % of Total ([1]; bolt height 3 m): 85.7%
Number of Egg Galleries Without Brood No. ([1]; bolt height 3 m): 1.0
Nuptial Chambers With Egg Galleries % of Total ([1]; bolt height 3 m): 18.9%
Nuptial Chambers With Egg Galleries No. ([1]; bolt height 3 m): 1.2
Nuptial Chambers Without Egg Galleries % of Total ([1]; bolt height 3 m): 81.1%
Nuptial Chambers Without Egg Galleries No. ([1]; bolt height 3 m): 5.0
Total Nuptial Chambers ([1]; bolt height 3 m): 6.2
Length of Egg Galleries Total ([1]; bolt height 8 m): 22.7
Length of Egg Galleries With Brood ([1]; bolt height 8 m): 2.5 cm
Length of Egg Galleries With Brood % of Total ([1]; bolt height 8 m): 11.0%
Length of Egg Galleries Without Brood ([1]; bolt height 8 m): 20.2 cm
Length of Egg Galleries Without Brood % of Total ([1]; bolt height 8 m): 89.0%
Number of Egg Galleries Total ([1]; bolt height 8 m): 7.7
Number of Egg Galleries With Brood % of Total ([1]; bolt height 8 m): 6.5%
Number of Egg Galleries With Brood No. ([1]; bolt height 8 m): 0.5
Number of Egg Galleries Without Brood % of Total ([1]; bolt height 8 m): 93.5%
Number of Egg Galleries Without Brood No. ([1]; bolt height 8 m): 7.2
Nuptial Chambers With Egg Galleries % of Total ([1]; bolt height 8 m): 66.7%
Nuptial Chambers With Egg Galleries No. ([1]; bolt height 8 m): 3.0
Nuptial Chambers Without Egg Galleries % of Total ([1]; bolt height 8 m): 33.3%
Nuptial Chambers Without Egg Galleries No. ([1]; bolt height 8 m): 1.5
Total Nuptial Chambers ([1]; bolt height 8 m): 4.5
Mean # of Ips caught/trap [1]: 5.2
Number of Attacks/0.3 m bole section at 3 m after 24 days: Ips [1]: 1.3
tree survival ([1]; standing trees, end of trial (66 days)): survived
phloem area fed upon by cerambycid larvae ([2]; July, bolts from 3 m): 2%
reduction of cerambycid larval feeding damage ([2]; bolts from 3 m): 82%
reduction of cerambycid larval feeding damage ([2]; bolts from 8 m): 55%

O=[N+]([O-])NC1=NCCN1Cc1ccc(Cl)nc1 [Imid]
trees with early signs of fading crowns (number of 6 trees) [1]: 3 of 6
Pct of Trees w/Fading Crowns [1, 3]: 50.0 Pct
Pct of Trees w/Fading Crowns ([1]; After 32 days): 83.3 Pct
Pct of Trees w/Fading Crowns ([1]; After 39 days): 83.3 Pct
Pct of Trees w/Fading Crowns ([1]; After 46 days): 83.3 Pct
Pct of Trees w/Fading Crowns ([1]; After 52 days): 100.0 Pct
Pct of Trees w/Fading Crowns ([1]; After 59 days): 100.0 Pct
Pct of Trees w/Fading Crowns ([1]; After 66 days): 100.0 Pct
Length of Egg Galleries Total ([1]; bolt height 3 m): 301.5
Length of Egg Galleries With Brood ([1]; bolt height 3 m): 121.7 cm
Length of Egg Galleries With Brood % of Total ([1]; bolt height 3 m): 40.4%
Length of Egg Galleries Without Brood ([1]; bolt height 3 m): 179.8 cm
Length of Egg Galleries Without Brood % of Total ([1]; bolt height 3 m): 59.6%
Number of Egg Galleries Total ([1]; bolt height 3 m): 38.2
Number of Egg Galleries With Brood % of Total ([1]; bolt height 3 m): 28.8%
Number of Egg Galleries With Brood No. ([1]; bolt height 3 m): 11.0
Number of Egg Galleries Without Brood % of Total ([1]; bolt height 3 m): 71.2%
Number of Egg Galleries Without Brood No. ([1]; bolt height 3 m): 27.2
Nuptial Chambers With Egg Galleries % of Total ([1]; bolt height 3 m): 98.0%
Nuptial Chambers With Egg Galleries No. ([1]; bolt height 3 m): 8.0
Nuptial Chambers Without Egg Galleries % of Total ([1]; bolt height 3 m): 2.0%
Nuptial Chambers Without Egg Galleries No. ([1]; bolt height 3 m): 0.2
Total Nuptial Chambers ([1]; bolt height 3 m): 8.2
Length of Egg Galleries Total ([1]; bolt height 8 m): 217.5
Length of Egg Galleries With Brood ([1]; bolt height 8 m): 115.5 cm
Length of Egg Galleries With Brood % of Total ([1]; bolt height 8 m): 53.1%
Length of Egg Galleries Without Brood ([1]; bolt height 8 m): 102.0 cm
Length of Egg Galleries Without Brood % of Total ([1]; bolt height 8 m): 46.9%
Number of Egg Galleries Total ([1]; bolt height 8 m): 33.2
Number of Egg Galleries With Brood % of Total ([1]; bolt height 8 m): 42.7%
Number of Egg Galleries Without Brood % of Total ([1]; bolt height 8 m): 57.3%
Number of Egg Galleries Without Brood No. ([1]; bolt height 8 m): 19.0
Nuptial Chambers With Egg Galleries % of Total ([1]; bolt height 8 m): 78.7%
Nuptial Chambers With Egg Galleries No. ([1]; bolt height 8 m): 9.8
Nuptial Chambers Without Egg Galleries % of Total ([1]; bolt height 8 m): 21.3%
Nuptial Chambers Without Egg Galleries No. ([1]; bolt height 8 m): 2.7
Total Nuptial Chambers ([1]; bolt height 8 m): 12.5
Mean # of Ips caught/trap [1]: 8.5
Number of Attacks/0.3 m bole section at 3 m after 24 days: Ips [1]: 12.7
trees died due to bark beetle attack ([1]; standing trees, after 66 days): 100%
reduction of cerambycid larval feeding damage ([2]; bolts from 3 m): 61%
reduction of cerambycid larval feeding damage ([2]; bolts from 8 m): 98%
